Experimental data reported in US8580829B2 (Boehringer Ingelheim International GmbH, priority 2010, dated 2013).
Like-named read-outs stand apart in the source and are kept apart here.

What was measured:
[1] = target: T1, recombinant human FLAP protein (Homo sapiens, UniProt P20292); experiment: FLAP binding assay (Scintillation Proximity Assay, displacement of [125I]L-691,831); settings: recombinant human FLAP membranes, [125I]L-691,831 probe; read-out: FLAP SPA IC50
T1 construct: made in house; host or cells: Sf9 insect cells (100,000 x g membrane fraction)
T1 sequence (P20292 1-161): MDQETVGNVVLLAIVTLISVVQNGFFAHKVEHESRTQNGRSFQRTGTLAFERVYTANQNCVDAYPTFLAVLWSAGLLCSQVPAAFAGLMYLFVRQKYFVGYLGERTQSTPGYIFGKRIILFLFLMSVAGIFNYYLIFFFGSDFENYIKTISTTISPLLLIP
Outline: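 Membranes came from Sf9 insect cells expressing recombinant human FLAP, collected as the 100,000×g pellet in Tris pH 7.5/MgCl2/EDTA buffer. 5 μg membrane protein was coupled to WGA SPA beads for 1 h.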

[2] = system: synthesis of LTB4 in human whole blood; experiment: human whole blood LTB4 production inhibition assay; assay type: cell-based; settings: heparinized human whole blood, calcimycin 20 μM, read-out: hWB LTB4 IC50
Outline: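 Heparinized human whole blood was preincubated with compound for 15 min at 37° C, then stimulated with calcimycin (20 μM final, in PBS pH 7.4) for a further 30 min at 37° C. Plasma LTB4 was quantified by antibody-based homogeneous time-resolved fluorescence.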

Row | SMILES | IC50 [1] [nM] | IC50 ([2]; Homo sapiens) [nM] | IC50 [2] [nM]
1 | Nc1ncc(-c2ccc(C3(c4noc(-c5ccc6[nH]ncc6c5)n4)CCC3)cc2)cn1 [Example 190, 5-(4-{1-[5-(1H-Indazol-5-yl)-1,2,4-oxadiazol-3-yl]-cyclobutyl}-phenyl)-pyrimidin-2-ylamine] | 1.2 | 27 | –
2 | Nc1ncc(-c2ccc(C3(c4noc(-c5cc(Cl)c[nH]c5=O)n4)CCC3)cc2)cn1 [Example 191, 3-(3-{1-[4-(2-Amino-pyrimidin-5-yl)-phenyl]-cyclobutyl}-1,2,4-oxadiazol-5-yl)-5-chloro-1H-pyridin-2-one] | 2.6 | > 5000 | –
3 | Cc1ccc(-c2nc(C3(c4ccc(-c5cnc(N)nc5)cc4)CCC3)no2)c(=O)[nH]1 [Example 192, 3-(3-{1-[4-(2-Amino-pyrimidin-5-yl)-phenyl]-cyclobutyl}-1,2,4-oxadiazol-5-yl)-6-methyl-1H-pyridin-2-one] | 1.7 | > 5000 | –
4 | Nc1cnc(-c2nc(C3(c4ccc(-c5cnc(N)nc5)cc4)CCC3)no2)cn1 [Example 193, 5-(4-{1-[5-(5-Amino-pyrazin-2-yl)-1,2,4-oxadiazol-3-yl]-cyclobutyl}-phenyl)-pyrimidin-2-ylamine] | 1.6 | 45 | –
5 | Nc1ncc(-c2ccc(C3(c4noc(-c5cnc(N6CCC[C@H]6CO)cn5)n4)CCC3)cc2)cn1 [Example 194, {(S)-1-[5-(3-{1-[4-(2-Amino-pyrimidin-5-yl)-phenyl]-cyclobutyl}-1,2,4-oxadiazol-5-yl)-pyrazin-2-yl]-pyrrolidin-2-yl}-methanol] | 3 | 85 | –
6 | Nc1ncc(-c2ccc(C3(c4noc(-c5cnc(N6CCC[C@@H]6CO)cn5)n4)CCC3)cc2)cn1 [Example 195, {(R)-1-[5-(3-{1-[4-(2-Amino-pyrimidin-5-yl)-phenyl]-cyclobutyl}-1,2,4-oxadiazol-5-yl)-pyrazin-2-yl]-pyrrolidin-2-yl}-methanol] | 2.9 | 140 | –
7 | CNc1cnc(-c2nc(C3(c4ccc(-c5cnc(N)nc5)cc4)CCC3)no2)cn1 [Example 196, 5-(4-{1-[5-(5-Methylamino-pyrazin-2-yl)-1,2,4-oxadiazol-3-yl]-cyclobutyl}-phenyl)-pyrimidin-2-ylamine] | 2.1 | 24 | –
8 | CC(C)Nc1cnc(-c2nc(C3(c4ccc(-c5cnc(N)nc5)cc4)CCC3)no2)cn1 [Example 197, 5-(4-{1-[5-(5-Isopropylamino-pyrazin-2-yl)-1,2,4-oxadiazol-3-yl]-cyclobutyl}-phenyl)-pyrimidin-2-ylamine] | 1.5 | 48 | –
9 | COCCN(C)c1cnc(-c2nc(C3(c4ccc(-c5cnc(N)nc5)cc4)CCC3)no2)cn1 [Example 198, 5-{4-[1-(5-{5-[(2-Methoxy-ethyl)-methyl-amino]-pyrazin-2-yl}-1,2,4-oxadiazol-3-yl)-cyclobutyl]-phenyl}-pyrimidin-2-ylamine] | 2 | 57 | –
10 | CCOC(=O)CNc1cnc(-c2nc(C3(c4ccc(-c5cnc(N)nc5)cc4)CCC3)no2)cn1 [Example 199, [5-(3-{1-[4-(2-Amino-pyrimidin-5-yl)-phenyl]-cyclobutyl}-1,2,4-oxadiazol-5-yl)-pyrazin-2-ylamino]-acetic acid ethyl ester] | 1 | 42 | –
11 | CC(O)CNc1cnc(-c2nc(C3(c4ccc(-c5cnc(N)nc5)cc4)CCC3)no2)cn1 (centres unmarked) [Example 200, 1-[5-(3-{1-[4-(2-Amino-pyrimidin-5-yl)-phenyl]-cyclobutyl}-1,2,4-oxadiazol-5-yl)-pyrazin-2-ylamino]-propan-2-ol] | 1.5 | 67 | –
12 | Nc1ncc(-c2ccc(C3(c4noc(-c5cnc(N6CCNC(=O)C6)cn5)n4)CCC3)cc2)cn1 [Example 201, 5′-(3-{1-[4-(2-Amino-pyrimidin-5-yl)-phenyl]-cyclobutyl}-1,2,4-oxadiazol-5-yl)-5,6-dihydro-4H-1,2′-bipyrazinyl-3-one] | 2.3 | 400 | –
13 | CS(=O)(=O)N1CCN(c2cnc(-c3nc(C4(c5ccc(-c6cnc(N)nc6)cc5)CCC4)no3)cn2)CC1 [Example 202, 5-(4-{1-[5-(4-Methanesulfonyl-3,4,5,6-tetrahydro-2H-1,2′-bipyrazinyl-5′-yl)-1,2,4-oxadiazol-3-yl]-cyclobutyl}-phenyl)-pyrimidin-2-ylamine] | 2.6 | 70 | –
14 | CS(=O)(=O)C1CCN(c2cnc(-c3nc(C4(c5ccc(-c6cnc(N)nc6)cc5)CCC4)no3)cn2)C1 (centres unmarked) [Example 203, 5-[4-(1-{5-[5-(3-Methanesulfonyl-pyrrolidin-1-yl)-pyrazin-2-yl]-1,2,4-oxadiazol-3-yl}-cyclobutyl)-phenyl]-pyrimidin-2-ylamine] | 1.9 | 130 | –
15 | CCNC(=O)Cn1cc(-c2nc(C3(c4ccc(-c5cnc(N)nc5)cc4)CCC3)no2)cn1 [Example 204, 2-[4-(3-{1-[4-(2-Amino-pyrimidin-5-yl)-phenyl]-cyclobutyl}-[1,2,4]oxadiazol-5-yl)-pyrazol-1-yl]-N-ethyl-acetamide] | 4.5 | – | 75
16 | CCN(C)C(=O)Cn1cc(-c2nc(C3(c4ccc(-c5cnc(N)nc5)cc4)CCC3)no2)cn1 [Example 206, 2-[4-(3-{1-[4-(2-Amino-pyrimidin-5-yl)-phenyl]-cyclobutyl}-[1,2,4]oxadiazol-5-yl)-pyrazol-1-yl]-N-ethyl-N-methyl-acetamide] | 4.3 | – | 38
17 | CC(C)NC(=O)Cn1cc(-c2nc(C3(c4ccc(-c5cnc(N)nc5)cc4)CCC3)no2)cn1 [Example 208, 2-[4-(3-{1-[4-(2-Amino-pyrimidin-5-yl)-phenyl]-cyclobutyl}-[1,2,4]oxadiazol-5-yl)-pyrazol-1-yl]-N-isopropyl-acetamide] | 2.8 | 52 | –
18 | COC1CCN(C(=O)Cn2cc(-c3nc(C4(c5ccc(-c6cnc(N)nc6)cc5)CCC4)no3)cn2)C1 (centres unmarked) [Example 210, 2-[4-(3-{1-[4-(2-Amino-pyrimidin-5-yl)-phenyl]-cyclobutyl}-[1,2,4]oxadiazol-5-yl)-pyrazol-1-yl]-1-(3-methoxy-pyrrolidin-1-yl)-ethanone] | 4.6 | 110 | –
19 | CCN(CC)C(=O)n1cc(-c2nc(C3(c4ccc(-c5cnc(N)nc5)cc4)CCC3)no2)cn1 [Example 211, 4-(3-{1-[4-(2-Amino-pyrimidin-5-yl)-phenyl]-cyclobutyl}-[1,2,4]oxadiazol-5-yl)-pyrazole-1-carboxylic acid diethylamide] | 3 | 89 | –
20 | Nc1ncc(-c2ccc(C3(c4noc(-c5cnn(C(=O)N6CCOCC6)c5)n4)CCC3)cc2)cn1 [Example 212, [4-(3-{1-[4-(2-Amino-pyrimidin-5-yl)-phenyl]-cyclobutyl}-[1,2,4]oxadiazol-5-yl)-pyrazol-1-yl]-morpholin-4-yl-methanone] | 2.2 | 22 | –
21 | CNC(=O)n1cc(-c2nc(C3(c4ccc(-c5cnc(N)nc5)cc4)CCC3)no2)cn1 [Example 213, 4-(3-{1-[4-(2-Amino-pyrimidin-5-yl)-phenyl]-cyclobutyl}-[1,2,4]oxadiazol-5-yl)-pyrazole-1-carboxylic acid methylamide] | 0.85 | 110 | –
22 | Nc1ncc(-c2ccc(C3(c4noc(-c5cnc(N6CCNCC6)cn5)n4)CCC3)cc2)cn1 [Example 214, 5-(4-{1-[5-(3,4,5,6-Tetrahydro-2H-[1,2′]bipyrazinyl-5′-yl)-[1,2,4]oxadiazol-3-yl]-cyclobutyl}-phenyl)-pyrimidin-2-ylamine] | 4 | – | 150
23 | Cn1cc(-c2nc(C3(c4ccc(-c5ccc(N)nc5)cc4)CCC3)no2)cn1 [Example 215, 5-(4-{1-[5-(1-Methyl-1H-pyrazol-4-yl)-[1,2,4]oxadiazol-3-yl]-cyclobutyl}-phenyl)-pyridin-2-ylamine] | 2.1 | 26 | –
24 | Nc1ncc(-c2ccc(C3(c4noc(-c5cnn(CCN6CCCC6=O)c5)n4)CCC3)cc2)cn1 [Example 216, 1-{2-[4-(3-{1-[4-(2-Amino-pyrimidin-5-yl)-phenyl]-cyclobutyl}-[1,2,4]oxadiazol-5-yl)-pyrazol-1-yl]-ethyl}-pyrrolidin-2-one] | 1.3 | 59 | –
25 | CC(C)CNC(=O)Cn1cc(-c2nc(C3(c4ccc(-c5cnc(N)nc5)cc4)CCC3)no2)cn1 [Example 217, 2-[4-(3-{1-[4-(2-Amino-pyrimidin-5-yl)-phenyl]-cyclobutyl}-[1,2,4]oxadiazol-5-yl)-pyrazol-1-yl]-N-isobutyl-acetamide] | 3.4 | 81 | –
26 | Nc1ncc(-c2ccc(C3(c4noc(-c5cnn(CC(=O)NC6CCOCC6)c5)n4)CCC3)cc2)cn1 [Example 218, 2-[4-(3-{1-[4-(2-Amino-pyrimidin-5-yl)-phenyl]-cyclobutyl}-[1,2,4]oxadiazol-5-yl)-pyrazol-1-yl]-N-(tetrahydro-pyran-4-yl)-acetamide] | 1.2 | 160 | –
27 | CN1CCN(C(=O)Cn2cc(-c3nc(C4(c5ccc(-c6cnc(N)nc6)cc5)CCC4)no3)cn2)CC1 [Example 219, 2-[4-(3-{1-[4-(2-Amino-pyrimidin-5-yl)-phenyl]-cyclobutyl}-[1,2,4]oxadiazol-5-yl)-pyrazol-1-yl]-1-(4-methyl-piperazin-1-yl)-ethanone] | 3.1 | 140 | –
28 | Cn1cc(-c2nc(C3(c4ccc(-c5cnc(N)cn5)cc4)CCC3)no2)cn1 [Example 220, 5-(4-{1-[5-(1-Methyl-1H-pyrazol-4-yl)-[1,2,4]oxadiazol-3-yl]-cyclobutyl}-phenyl)-pyrazin-2-ylamine] | 0.7 | 16 | –
